Measured values reported in patent publication US6436948B1, “Method for the treatment of psoriasis and genital warts” (priority 1995, dated 2002).

Columns and labels:
BT-549 = experiment: NCI cancer screening program, SRB: BT-549; type: cell-based; settings: Breast Cancer, PG +50, 48 hours
[1] = tested on: DU-145 prostate carcinoma line; experiment: In vitro cytotoxicity, methylene blue assay / cell count: DU-145; type: cell-based; settings: Homo sapiens, read-out: ID50 (the source's name)
[2] = biological target: human deoxycytidine kinase (Homo sapiens, UniProt P27707); experiment: In vitro enzymatic studies of phosphorylation; type: biochemical
Chain of human deoxycytidine kinase (P27707 whole entry): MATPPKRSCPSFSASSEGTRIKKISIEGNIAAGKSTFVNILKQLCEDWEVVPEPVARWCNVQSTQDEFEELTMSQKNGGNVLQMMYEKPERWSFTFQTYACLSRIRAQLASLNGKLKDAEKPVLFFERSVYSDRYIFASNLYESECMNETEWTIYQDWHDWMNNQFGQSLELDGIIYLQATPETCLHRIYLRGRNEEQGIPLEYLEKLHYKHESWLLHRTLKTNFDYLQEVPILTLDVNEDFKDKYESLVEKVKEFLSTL

A549/ATCC = experiment: NCI cancer screening program, SRB: A549/ATCC; settings: Non-Small Cell Lung Cancer, PG +50, 48 hours
Text: (§2) GI50, TGI and LC50 are values representing the concentrations at which the PG (percent of growth inhibition), defined below, is +50, 0, and −50, respectively.
(§3) If (Mean ODtest−Mean ODtzero)≧0. then PG=100×(Mean ODtest−Mean ODtzero)/(Mean ODctrl−Mean ODtzero)
(§4) If (Mean ODtest−Mean ODtzero)<0. then PG=100×(Mean ODtest−Mean ODtzero)/(Mean ODtzero)
(§5) Mean ODtzero=The average of optical density measurements of SRB-derived color just before exposure of cells to the test compound.
(§6) Mean ODtestThe average of optical density measurements of SRB-derived color after 48 hours exposure of cells to the test compound.
(§7) Mean ODctrl=The average of optical density measurements of SRB-derived color after 48 hours with no exposure of cells to the test compound.
(§8) If these response parameters could not be obtained by interpolation, the value given for each response parameter is the highest concentration tested and is preceded by a “>” sign.

Colon 38 tumor cells = experiment: In vivo treatment of Colon 38 tumor cells implanted sc in BDF1 mice; design: species or system mouse; settings: 25 mg/kg/dose twice daily for five days
Text: The graph plots tumor growth as a percentage of original tumor weight vs. days. Treatment of the mice occurred in days 1, 2, 3, 4 and 5.
Colon 38 tumor cells were implanted sc to BDF1 mice.

SK-MEL-5 = experiment: NCI cancer screening program, SRB: SK-MEL-5; type: cell-based; settings: Melanoma, PG +50, 48 hours
OVCAR-8 = experiment: NCI cancer screening program, SRB: OVCAR-8; type: cell-based; settings: Ovarian Cancer
LOX D6VI = experiment: NCI cancer screening program, SRB: LOX D6VI; type: cell-based; settings: Melanoma
SNB-19 = experiment: NCI cancer screening program, SRB: SNB-19; type: cell-based; settings: CNS Cancer, PG +50, 48 hours
TK-30 = settings: Renal Cancer
Text: as §2, §3, §4, §5, §6, §7, §8

SK-MEL-28 = experiment: NCI cancer screening program, SRB: SK-MEL-28; type: cell-based; settings: Melanoma, PG +50, 48 hours
CAKI-1 = experiment: NCI cancer screening program, SRB: CAKI-1; type: cell-based; settings: Renal Cancer, PG +50, 48 hours
OVCAR-4 = experiment: NCI cancer screening program, SRB: OVCAR-4; type: cell-based; settings: Ovarian Cancer, PG +50, 48 hours
HCT-116 = experiment: NCI cancer screening program, SRB: HCT-116; type: cell-based; settings: Colon Cancer, PG +50, 48 hours
MDA-N = experiment: NCI cancer screening program, SRB: MDA-N; type: cell-based; settings: Breast Cancer, PG +50, 48 hours
SP-295 = settings: CNS Cancer, PG +50, 48 hours
Text: as §2, §3, §4, §5, §6, §7, §8

HCT-15 = experiment: NCI cancer screening program, SRB: HCT-15; type: cell-based; settings: Colon Cancer, PG +50, 48 hours
NCr nude mice = type: in vivo
Method: (§1) Drugs were given at the indicated doses on days 0 through 4 and tumor sizes were measured every several days. The tumor growth curves were generated as described in Bell, et al., Cancer(phila.) 36:2437-2440 (1975), and are illustrated in FIGS. 5(a) and 5(b).
Toxicity was evaluated by changes in body weight.

UACC-257 = experiment: NCI cancer screening program, SRB: UACC-257; type: cell-based; settings: Melanoma, PG +50, 48 hours
[3] = tested on: PC-3 prostate carcinoma line; experiment: In vitro cytotoxicity, methylene blue assay / cell count: PC-3; type: cell-based; settings: three generations, mean ± standard deviation of five experiments, read-out: ID50 (the source's name)
BDF1 mice = experiment: Toxicity to BDF1 mice, ip twice daily for five days; type: in vivo; settings: 75 mg/kg/dose ip twice daily for five days
Text: 10^6 Leukemia P388 cells were implanted ip to BDF1 mice obtained from Southern Research Institute, Alabama.

UACC-62 = experiment: NCI cancer screening program, SRB: UACC-62; type: cell-based; settings: Melanoma, PG +50, 48 hours
[4] = tested on: KB nasopharyngeal carcinoma cell line; experiment: In vitro cytotoxicity, methylene blue assay / cell count: KB; type: cell-based; settings: three generations, mean ± standard deviation of five experiments, read-out: ID50 (the source's name)
785-4 = settings: Renal Cancer, PG +50, 48 hours
Text: as §2, §3, §4, §5, §6, §7, §8

NCI-H460 = experiment: NCI cancer screening program, SRB: NCI-H460; type: cell-based; settings: Non-Small Cell Lung Cancer, PG +50, 48 hours
BSOLT-4 = experiment: NCI cancer screening program, SRB: BSOLT-4; type: cell-based; settings: Leukemia, PG +50, 48 hours
HT29 = experiment: NCI cancer screening program, SRB: HT29; type: cell-based; settings: Colon Cancer, PG +50, 48 hours
DU-145 = experiment: NCI cancer screening program, SRB: DU-145; type: cell-based; settings: Prostate Cancer, PG +50, 48 hours
PC-3 = experiment: NCI cancer screening program, SRB: PC-3; type: cell-based; settings: Prostate Cancer, PG +50, 48 hours
HOP-62 = experiment: NCI cancer screening program, SRB: HOP-62; type: cell-based; settings: Non-Small Cell Lung Cancer, PG +50, 48 hours
RPMI-2.26 = experiment: NCI cancer screening program, SRB: RPMI-2.26; type: cell-based; settings: Leukemia, PG +50, 48 hours
U251 = experiment: NCI cancer screening program, SRB: U251; type: cell-based; settings: CNS Cancer, PG +50, 48 hours
SP-268 = settings: CNS Cancer, PG +50, 48 hours
Text: as §2, §3, §4, §5, §6, §7, §8

CCRF-CEM = experiment: NCI cancer screening program, SRB: CCRF-CEM; type: cell-based; settings: Leukemia, log10 concentration at PG +50, 48 hours
RXF-393 = experiment: NCI cancer screening program, SRB: RXF-393; type: cell-based; settings: Renal Cancer, PG +50, 48 hours
BKVX = settings: Non-Small Cell Lung Cancer, PG +50, 48 hours
Text: as §2, §3, §4, §5, §6, §7, §8

OVCAR-3 = experiment: NCI cancer screening program, SRB: OVCAR-3; type: cell-based; settings: Ovarian Cancer
DU-145 tumors = experiment: DU-145 xenograft in NCr nude mice; type: in vivo, human
Method: FIG. 5 is a graph of the inhibition of human tumor growth by […]. Three to six week old NCr nude mice were inoculated subcutaneously in each flank with 2×10^6 HepG2 or DU-145 cells. Treatment was started when the tumors were in an advanced stage of growth. Drugs were administered twice a day on days 0 through 4 and tumor sizes were measured on the indicated days. […] Each data point represents the means±SD of 10 tumors in graph A and six tumors in graph B.
Three to six-week-old NCr nude mice (Taconic Immunodeficient Mice and Rats) were inoculated s.c. in each flank with 2×10^6HepG2 or DU-145 cells and tumors were allowed to grow. Treatment was started when the tumors were 100-250mg as determined by caliper measurement and calculated according to the formula:
Tumor Weight(mg)=length(mm)×width(mm^2)÷2
as §1

Nc1ccn([C@@H]2CO[C@H](CO)O2)c(=O)n1 [(−)-OddC, (−)-(2S,4S)-1-(2-hydroxymethyl-1,3-dioxolan-4-yl)cytosine]
LOG10GI50 (BT-549): −4.59 | IC50 [1]: 24 ± 20 nM | Phosphorylation by human deoxycytidine kinase [2]: can be phosphorylated | Log10GI50 (A549/ATCC): −6.01 | Colon tumor cell growth (Colon 38 tumor cells): retarded | Log10GI50 (SK-MEL-5): −4.91 | LOG10TGI (OVCAR-8; PG 0, 48 hours): >−4.00 | LOG10GI50 (OVCAR-8; PG +50, 48 hours): −5.82 | Log10TGI (LOX D6VI; PG 0, 48 hours): >−4.00 | Log10GI50 (LOX D6VI; PG +50, 48 hours): −6.39 | Log10GI50 (SNB-19): −5.71 | LOG10TGI (TK-30; PG 0, 48 hours): >−4.00 | LOG10GI50 (TK-30; PG +50, 48 hours): >−4.00 | Log10GI50 (SK-MEL-28): −4.31 | LOG10GI50 (CAKI-1): −6.65 | LOG10GI50 (OVCAR-4): >−4.00 | Log10GI50 (HCT-116): −5.23 | LOG10GI50 (MDA-N): −4.33 | Log10GI50 (SP-295): −6.24 | Log10GI50 (HCT-15): −5.39 | Toxicity as indicated by weight loss of the animals (NCr nude mice; doses given, 25 mg/kg twice a day days 0 through 4): equally toxic | Maximum tolerated dosage (NCr nude mice; twice a day for five continuous days of treatment, preliminary toxicity experiments): 25 mg/kg | LOG10GI50 (UACC-257): >−4.00 | IC50 [3]: 56 ± 39 nM | Toxicity to the mice (BDF1 mice): toxic | LOG10GI50 (UACC-62): −5.53 | IC50 [4]: 48 ± 21 nM | LOG10GI50 (785-4): −5.36 | Log10GI50 (NCI-H460): −4.32 | Log10GI50 (BSOLT-4): −6.66 | Log10GI50 (HT29): >−4.00 | LOG10GI50 (DU-145): −6.97 | LOG10GI50 (PC-3): −6.29 | Log10GI50 (HOP-62): −6.23 | Log10GI50 (RPMI-2.26): −4.03 | Log10GI50 (U251): −4.91 | Log10GI50 (SP-268): −5.18 | Log10GI50 (CCRF-CEM): −6.64 | LOG10GI50 (RXF-393): −6.17 | Log10GI50 (BKVX): >−4.00 | LOG10TGI (OVCAR-3; PG 0, 48 hours): >−4.00 | LOG10GI50 (OVCAR-3; PG +50, 48 hours): −4.44 | Effect on DU-145 tumors in words (DU-145 tumors; 25 mg/kg twice a day on days 0 through 4, NCr nude mice): effective | DU-145 tumors regressing completely (DU-145 tumors; by day 15): half of them regressing completely
